Structures can show the parent of a compound that is named as a salt.
Tested on: NQO1 specific enzyme activity in BEAS-2B cells
Assay: BEAS-2B NQO1 MTT assay
Format: cell-based
Conditions: Homo sapiens, BEAS-2B, 48 h, BEAS-2B cells, 48 hours with compound, MTT readout; read-out: EC50 of NQO1 specific activity induction
In short: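 BEAS-2B cells treated with compound 48 h at 37° C, 5% CO2, then lysed; NQO1 activity in lysate measured kinetically by MTT cocktail at Absorbance 570 nm over 30 min. EC50 for induction from Delta OD/min versus log concentration, 3-parameter fit; Cell Titer Glo run on lysate aliquot.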

SMILES: CC[C@@H]1CN(Cc2cc(C(CCc3cn(CC)nn3)CC(=O)NS(C)(=O)=O)ccc2C)Cc2cnccc2O1 (stereo partly drawn) [Example 234, 5-(1-Ethyl-1H-1,2,3-triazol-4-yl)-3-(3-(((R)-2-ethyl-2,3-dihydropyrido[3,4-f][1,4]oxazepin-4(5H)-yl)methyl)-4-methylphenyl)-N-(methylsulfonyl)pentanamide]
- EC50: 1 to 10 µM

SMILES: Cc1ccc([C@H](c2ccc3c(nnn3C)c2C)C(C)(C)C(=O)O)cc1Cn1ccnc1CC1CCCCCC1 [Example 125, (R)-3-(3-((2-(Cycloheptylmethyl)-1H-imidazol-1-yl)methyl)-4-methylphenyl)-3-(1,4-dimethyl-1H-benzo[d][1,2,3]triazol-5-yl)-2,2-dimethylpropanoate, Sodium salt]
- EC50: 0.1 to 1 µM

SMILES: CC[C@@H]1CN(Cc2cc([C@H](CC(=O)O)c3ccc4c(nnn4C)c3C)ccc2C)Cc2cnccc2O1 [Example 50, (S)-3-(1,4-Dimethyl-1H-benzo[d][1,2,3]triazol-5-yl)-3-(3-(((R)-2-ethyl-2,3-dihydropyrido[3,4-f][1,4]oxazepin-4(5H)-yl)methyl)-4-methylphenyl)propanoic acid, formic acid salt]
- EC50: 0.01 to 0.1 µM

SMILES: CC[C@@H]1CN(Cc2cc([C@@H](CC(=O)O)c3ccc4c(nnn4C)c3C)ccc2C)Cc2cccc(F)c2O1 [Example 60, (R)-3-(1,4-Dimethyl-1H-benzo[d][1,2,3]triazol-5-yl)-3-(3-(((R)-2-ethyl-9-fluoro-2,3-dihydrobenzo[f][1,4]oxazepin-4(5H)-yl)methyl)-4-methylphenyl)propanoic acid, Sodium salt]
- EC50: 0.01 to 0.1 µM

SMILES: CC[C@@H]1CN(Cc2cc([C@@H](c3ccc4c(nnn4C)c3C)C(C)(C)C(=O)OCOC(=O)C(C)(C)C)ccc2C)Cc2cnccc2O1 [Example 253, (S)-(Pivaloyloxy)methyl 3-(1,4-dimethyl-1H-benzo[d][1,2,3]triazol-5-yl)-3-(3-(((R)-2-ethyl-2,3-dihydropyrido[3,4-f][1,4]oxazepin-4(5H)-yl)methyl)-4-methylphenyl)-2,2-dimethylpropanoate]
- EC50: < 0.001 µM

SMILES: Cc1ccc(C(CC(=O)O)c2ccc3c(nnn3C)c2C)cc1CN1Cc2ccc(Br)cc2O[C@@H](C)C1 (stereo partly drawn) [Example 93, 3-(3-(((S)-8-bromo-2-methyl-2,3-dihydrobenzo[f][1,4]oxazepin-4(5H)-yl)methyl)-4-methylphenyl)-3-(1,4-dimethyl-1H-benzo[d][1,2,3]triazol-5-yl)propanoic Acid, Formic Acid Salt]
- EC50: 0.001 to 0.01 µM

SMILES: Cc1ccc(C(CC(=O)O)c2ccc(F)cc2C)cc1Cn1ccnc1CC1CCCCC1 (stereo not shown) [Example 135, 3-(3-((2-(Cyclohexylmethyl)-1H-imidazol-1-yl)methyl)-4-methylphenyl)-3-(4-fluoro-2-methylphenyl)propanoic Acid]
- EC50: 0.01 to 0.1 µM

SMILES: Cc1ccc(C(CC(=O)O)c2ccc3c(nnn3C)c2C)cc1Cn1ccnc1CN1CCCC1 (stereo not shown) [Example 153, 3-(1,4-Dimethyl-1H-benzo[d][1,2,3]triazol-5-yl)-3-(4-methyl-3-((2-(pyrrolidin-1-ylmethyl)-1H-imidazol-1-yl)methyl)phenyl)propanoic Acid, Formic Acid Salt]
- EC50: 1 to 10 µM

SMILES: CCn1nnc2c(F)c([C@H](c3ccc(C)c(CN4Cc5cccnc5OC(C)(C)C4)c3)[C@@H](C)C(=O)O)ccc21 [Example 195, (2R,3S)-3-(3-((2,2-Dimethyl-2,3-dihydropyrldo[3,2-f][1,4]oxazepin-4(5H)-yl)methyl)-4-methylphenyl)-3-(1-ethyl-4-fluoro-1H-benzo[d][1,2,3]triazol-5-yl)-2-methylpropanoic acid]
- EC50: 0.01 to 0.1 µM

SMILES: COc1ccc(CN(Cc2cc(C(CC(=O)O)c3ccc4c(nnn4C)c3C)ccc2C)C2CC2)cc1 (stereo not shown) [Example 20, 3-(3-((cyclopropyl(4-methoxybenzyl)amino)meth-yl)-4-methylphenyl)-3-(1,4-dimethyl-1H-benzo[d][1,2,3]triazol-5-yl)propanoic acid, formic acid salt]
- EC50: 0.1 to 1 µM

SMILES: COc1cc(C(CC(=O)O)c2ccc(Cl)c(CN3CCCC(n4cccn4)C3)c2)c(C)c2nnn(C)c12 (stereo not shown) [Example 164, 3-(3-((3-(1H-pyrazol-1-yl)piperidin-1-yl)methyl)-4-chlorophenyl)-3-(7-methoxy-1,4-dimethyl-1H-benzo[d][1,2,3]triazol-5-yl)propanoic Acid, Formic Acid Salt]
- EC50: 0.1 to 1 µM

SMILES: Cc1ccc([C@@H](c2ccc3c(nnn3C)c2C)C(C)(C)C(=O)O)cc1Cn1ccnc1CC1CCCCCC1 [Example 235, (S)-3-(3-((2-(Cycloheptylmethyl)-1H-imidazol-1-yl)methyl)-4-methylphenyl)-3-(1,4-dimethyl-1H-benzo[d][1,2,3]triazol-5-yl)-2,2-dimethylpropanoic Acid]
- EC50: < 0.001 µM

SMILES: CCC1Cc2ccccc2CN(Cc2cc(C(CC(=O)O)c3ccc4c(nnn4C)c3C)ccc2C)C1 (stereo not shown) [Example 106, 3-(1,4-Dimethyl-1H-benzo[d][1,2,3]triazol-5-yl)-3-(3-((4-ethyl-4,5-dihydro-1H-benzo[c]azepin-2(3H)-yl)methyl)-4-methylphenyl)propanoic Acid]
- EC50: 0.1 to 1 µM

SMILES: CC[C@@H]1CN(Cc2cc([C@@H](c3ccc4c(nnn4C)c3C)C(C)(C)C(=O)O)ccc2C)Cc2ccncc2O1 [Example 219, (S)-3-(1,4-Dimethyl-1H-benzo[d][1,2,3]triazol-5-yl)-3-(3-(((R)-2-ethyl-2,3-dihydropyrido[4,3-f][1,4]oxazepin-4(5H)-yl)methyl)-4-methylphenyl)-2,2-dimethylpropanoic Acid, Trifluoroacetate]
- EC50: 0.001 to 0.01 µM

SMILES: Cc1ccc(C(CC(=O)O)c2ccc3c(nnn3C)c2C)cc1Cn1ccnc1C(C)C1CCCCC1 (stereo not shown) [Example 133, Ammonium 3-(3-((2-(1-cyclohexylethyl)-1H-imidazol-1-yl)methyl)-4-methylphenyl)-3-(1,4-dimethyl-1H-benzo[d][1,2,3]triazol-5-yl)propanoate]
- EC50: 0.1 to 1 µM

SMILES: CC[C@@H]1CN(Cc2cc(C(c3ccc4c(nnn4C)c3C)C(C)(C)C(=O)O)ccc2C)Cc2ccc(F)cc2O1 (stereo partly drawn) [Example 33, 3-(1,4-Dimethyl-1H-benzo[d][1,2,3]triazol-5-yl)-3-(3-(((R)-2-ethyl-8-fluoro-2,3-dihydrobenzo[f][1,4]oxaz-epin-4(5H)-yl)methyl)-4-methylphenyl)-2,2-dimethylpropanoic acid, formic acid salt]
- EC50: 0.01 to 0.1 µM

SMILES: CCn1nnc2c(C)c(C(CC(=O)O)c3ccc(C)c(CN4Cc5ccccc5O[C@@H](C)C4)c3)ccc21 (stereo partly drawn) [Example 97, 3-(1-Ethyl-4-methyl-1H-benzo[d][1,2,3]triazol-5-yl)-3-(4-methyl-3-(((S)-2-methyl-2,3-dihydrobenzo[f][1,4]oxazepin-4(5H)-yl)methyl)phenyl)propanoic Acid, Formic Acid Salt]
- EC50: 0.1 to 1 µM

SMILES: Cc1ccc(C(c2ccc3c(nnn3C)c2C)C(C)(C)C(=O)O)cc1CN1Cc2cccc(F)c2OC(C)(C)C1 (stereo not shown) [Example 35, 3-(1,4-Dimethyl-1H-benzo[d][1,2,3]triazol-5-yl)-3-(3-((9-fluoro-2,2-dimethyl-2,3-dihydrobenzo[f][1,4]oxaz-epin-4(5H)-yl)methyl)-4-methylphenyl)-2,2-dimethylpropanoic acid]
- EC50: 0.001 to 0.01 µM

SMILES: CCn1nnc2c(C)c([C@@H](c3ccc(C)c(Cn4ccnc4CN4CCCCC4)c3)[C@H](C)C(=O)O)ccc21 [Example 201, (2S,3R)-3-(1-Ethyl-4-methyl-1H-benzo[d][1,2,3]triazol-5-yl)-2-methyl-3-(4-methyl-3-((2-(piperidin-1-ylmethyl)-1H-imidazol-1-yl)methyl)phenyl)propanoic Acid]
- EC50: 0.1 to 1 µM

SMILES: Cc1ccc(C(c2ccc3c(nnn3C)c2C)C(C)(C)C(=O)O)cc1CN1CCOc2ccccc2C1 (stereo not shown) [Example 44, 3-(3-((2,3-Dihydrobenzo[f][1,4]oxazepin-4(5H)-yl)methyl)-4-methylphenyl)-3-(1,4-dimethyl-1H-benzo[d][1,2,3]triazol-5-yl)-2,2-dimethylpropanoic Acid, Formic Acid Salt]
- EC50: 0.01 to 0.1 µM

SMILES: CCC1CN(Cc2cc(C(CC(=O)O)c3ccc4c(nnn4C)c3C)ccc2C)Cc2ccccc2O1 (stereo not shown) [Example 2, 3-(1,4-Dimethyl-1H-benzo[d][1,2,3]triazol-5-yl)-3-(3-((2-ethyl-2,3-dihydrobenzo[f][1,4]oxazepin-4(5H)-yl)methyl)-4-methylphenyl)propanoic Acid, Trifluoroacetic Acid Salt]
- EC50: 0.1 to 1 µM

SMILES: CCn1cc(CCC(CC(=O)O)c2ccc(Cl)c(CN3Cc4cccnc4OC(C)(C)C3)c2)nn1 (stereo not shown) [Example 233, 3-(4-Chloro-3-((2,2-dimethyl-2,3-dihydropyrido[3,2-f][1,4]oxazepin-4(5H)-yl)methyl)phenyl)-5-(1-ethyl-1H-1,2,3-triazol-4-yl)pentanoic Acid]
- EC50: 1 to 10 µM

SMILES: Cc1ccc(C(CC(=O)O)c2ccc3c(nnn3C)c2C)cc1Cn1ccnc1CN1CCCCC1 (stereo not shown) [Example 154, 3-(1,4-dimethyl-1H-benzo[d][1,2,3]triazol-5-yl)-3-(4-methyl-3-((2-(piperidin-1-ylmethyl)-1H-imidazol-1-yl)methyl)phenyl)propanoic Acid, Trifluoroacetic Acid Salt]
- EC50: 0.1 to 1 µM

SMILES: CCC1CCN(Cc2nccn2Cc2cc(C(CCc3cn(CC)nn3)C(C)C(=O)O)ccc2C)CC1 (single isomer, unassigned; isomer 1) [Example 225, 5-(1-Ethyl-1H-1,2,3-triazol-4-yl)-3-(3-((2-((4-ethylpiperidin-1-yl)methyl)-1H-imidazol-1-yl)methyl)-4-methylphenyl)-2-methylpentanoic Acid, Trifluoroacetic Acid Salt (Compound 9, Isomer 1,Scheme A)]
- EC50: 0.01 to 0.1 µM

SMILES: CC[C@@H]1CN(Cc2cc(C(c3ccc4c(c3)nnn4C)C(C)(C)C(=O)O)ccc2C)Cc2ccccc2O1 (stereo partly drawn) [Example 103, Ammonium 3-(3-(((R)-2-Ethyl-2,3-dihydrobenzo[f][1,4]oxazepin-4(5H)-yl)methyl)-4-methylphenyl)-2,2-dimethyl-3-(1-methyl-1H-benzo[d][1,2,3]triazol-5-yl)propanoate]
- EC50: < 0.001 µM
